Legend:
Assay in all cases: Kinase inhibition assay (TLC)
Type in all cases: biochemical
EGFR = EGFR (Homo sapiens, UniProt P00533)
Procedure: (§1) Kinase inhibition was measured using thin-layer-chromatography (TLC). Briefly, purified kinases (20 nM), the corresponding substrate (500 µM, TSFYGRH for Etk, YIYGSFK for the other kinases), and CTA095 (0–10 µM) were incubated in a kinase reaction (100 mM Hepes, pH 7.4, 10 mM MnCl2, 10 mM MgCl2, 1 mM DTT) for 5 min, and the reaction was started by adding 5 μCi ^33P-labeled ATP. The reaction (10 µl) was incubated at room temperature for 1 h and was stopped by adding 10 μL H3PO4. The radioactivity of the peptide substrate was analyzed using TLC as previously described.
(§2) In addition to the Btk family tyrosine kinases, the inhibitory activity of CTA095 to other kinases, including Lyn, Axl, Mer, EGFR, and Abl, was investigated using a TLC assay.

Lyn = Lyn (Homo sapiens, UniProt P07948)
Procedure: as §1, §2

Mer = target: T1, Mer (Homo sapiens, UniProt Q12866)
T1 construct: purchased Millipore Inc (Dundee, UK)
Procedure: as §1, §2

Axl = Axl (Homo sapiens, UniProt P30530)
Procedure: as §1, §2

Itk = Itk (Homo sapiens, UniProt Q08881)
Procedure: as §1, §2

Abl = Abl (Homo sapiens, UniProt P00519)
Procedure: as §1, §2

T1 sequence (Q12866 21-999): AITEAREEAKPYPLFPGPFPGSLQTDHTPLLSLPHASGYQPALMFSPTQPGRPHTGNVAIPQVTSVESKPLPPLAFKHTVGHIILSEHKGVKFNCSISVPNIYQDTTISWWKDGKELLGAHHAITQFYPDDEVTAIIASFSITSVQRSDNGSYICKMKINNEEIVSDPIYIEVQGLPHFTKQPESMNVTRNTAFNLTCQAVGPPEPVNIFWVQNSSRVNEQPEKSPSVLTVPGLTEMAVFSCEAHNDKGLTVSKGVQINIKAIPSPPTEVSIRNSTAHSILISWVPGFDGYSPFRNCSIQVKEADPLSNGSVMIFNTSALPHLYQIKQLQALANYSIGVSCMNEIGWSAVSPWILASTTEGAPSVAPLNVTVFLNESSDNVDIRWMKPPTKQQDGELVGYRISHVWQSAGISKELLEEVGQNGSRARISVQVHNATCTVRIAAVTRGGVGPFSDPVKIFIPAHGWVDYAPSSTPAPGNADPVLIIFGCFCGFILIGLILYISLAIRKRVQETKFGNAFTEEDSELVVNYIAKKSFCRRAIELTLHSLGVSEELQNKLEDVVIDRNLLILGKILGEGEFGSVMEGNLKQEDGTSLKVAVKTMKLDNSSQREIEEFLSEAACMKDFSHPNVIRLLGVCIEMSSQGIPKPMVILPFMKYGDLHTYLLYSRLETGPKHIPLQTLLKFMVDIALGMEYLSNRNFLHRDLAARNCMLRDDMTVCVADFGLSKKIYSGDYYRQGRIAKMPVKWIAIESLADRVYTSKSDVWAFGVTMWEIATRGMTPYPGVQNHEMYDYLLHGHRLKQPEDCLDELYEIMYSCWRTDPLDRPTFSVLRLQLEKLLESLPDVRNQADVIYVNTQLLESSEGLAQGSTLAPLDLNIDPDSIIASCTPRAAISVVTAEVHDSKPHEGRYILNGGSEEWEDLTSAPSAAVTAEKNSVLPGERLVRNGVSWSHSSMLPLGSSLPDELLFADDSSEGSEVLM
Chain of Lyn (P07948 whole entry, species assumed): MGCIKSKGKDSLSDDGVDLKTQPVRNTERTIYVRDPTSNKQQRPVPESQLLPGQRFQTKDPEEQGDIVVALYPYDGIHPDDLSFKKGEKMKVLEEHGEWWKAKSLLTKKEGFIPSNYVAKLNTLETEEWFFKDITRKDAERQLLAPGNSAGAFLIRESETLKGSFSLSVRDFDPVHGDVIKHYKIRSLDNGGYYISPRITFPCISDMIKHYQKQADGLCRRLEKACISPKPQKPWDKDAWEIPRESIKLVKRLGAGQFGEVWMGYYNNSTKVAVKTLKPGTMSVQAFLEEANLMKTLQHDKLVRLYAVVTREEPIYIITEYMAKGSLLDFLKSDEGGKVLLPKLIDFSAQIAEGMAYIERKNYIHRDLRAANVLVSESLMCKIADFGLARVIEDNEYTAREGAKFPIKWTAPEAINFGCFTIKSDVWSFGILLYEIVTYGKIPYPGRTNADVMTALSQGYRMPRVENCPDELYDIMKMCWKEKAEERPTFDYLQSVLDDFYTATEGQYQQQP
Chain of Axl (P30530 26-894, species assumed): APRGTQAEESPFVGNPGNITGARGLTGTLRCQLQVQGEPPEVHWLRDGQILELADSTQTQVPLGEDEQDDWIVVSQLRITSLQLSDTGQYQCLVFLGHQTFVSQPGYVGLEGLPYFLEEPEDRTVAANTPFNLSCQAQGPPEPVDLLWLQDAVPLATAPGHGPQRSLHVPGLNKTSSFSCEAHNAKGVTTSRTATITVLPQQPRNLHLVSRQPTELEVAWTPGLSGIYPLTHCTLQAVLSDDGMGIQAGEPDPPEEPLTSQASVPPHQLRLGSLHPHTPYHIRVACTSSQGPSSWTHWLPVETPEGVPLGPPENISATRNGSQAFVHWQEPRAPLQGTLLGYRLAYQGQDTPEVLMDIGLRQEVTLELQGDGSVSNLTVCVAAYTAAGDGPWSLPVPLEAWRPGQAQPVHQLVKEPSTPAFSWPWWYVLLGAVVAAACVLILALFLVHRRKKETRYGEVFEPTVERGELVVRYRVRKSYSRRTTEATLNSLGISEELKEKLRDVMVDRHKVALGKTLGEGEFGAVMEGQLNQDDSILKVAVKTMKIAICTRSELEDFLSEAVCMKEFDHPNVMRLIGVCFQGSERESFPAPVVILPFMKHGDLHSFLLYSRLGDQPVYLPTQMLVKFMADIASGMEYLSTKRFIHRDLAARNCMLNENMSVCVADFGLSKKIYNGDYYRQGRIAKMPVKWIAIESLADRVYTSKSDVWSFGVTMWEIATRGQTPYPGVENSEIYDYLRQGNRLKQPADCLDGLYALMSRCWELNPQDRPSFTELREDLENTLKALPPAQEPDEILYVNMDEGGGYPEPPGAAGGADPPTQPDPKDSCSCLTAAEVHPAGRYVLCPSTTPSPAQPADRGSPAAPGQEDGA
Chain of Abl (P00519 whole entry, species assumed): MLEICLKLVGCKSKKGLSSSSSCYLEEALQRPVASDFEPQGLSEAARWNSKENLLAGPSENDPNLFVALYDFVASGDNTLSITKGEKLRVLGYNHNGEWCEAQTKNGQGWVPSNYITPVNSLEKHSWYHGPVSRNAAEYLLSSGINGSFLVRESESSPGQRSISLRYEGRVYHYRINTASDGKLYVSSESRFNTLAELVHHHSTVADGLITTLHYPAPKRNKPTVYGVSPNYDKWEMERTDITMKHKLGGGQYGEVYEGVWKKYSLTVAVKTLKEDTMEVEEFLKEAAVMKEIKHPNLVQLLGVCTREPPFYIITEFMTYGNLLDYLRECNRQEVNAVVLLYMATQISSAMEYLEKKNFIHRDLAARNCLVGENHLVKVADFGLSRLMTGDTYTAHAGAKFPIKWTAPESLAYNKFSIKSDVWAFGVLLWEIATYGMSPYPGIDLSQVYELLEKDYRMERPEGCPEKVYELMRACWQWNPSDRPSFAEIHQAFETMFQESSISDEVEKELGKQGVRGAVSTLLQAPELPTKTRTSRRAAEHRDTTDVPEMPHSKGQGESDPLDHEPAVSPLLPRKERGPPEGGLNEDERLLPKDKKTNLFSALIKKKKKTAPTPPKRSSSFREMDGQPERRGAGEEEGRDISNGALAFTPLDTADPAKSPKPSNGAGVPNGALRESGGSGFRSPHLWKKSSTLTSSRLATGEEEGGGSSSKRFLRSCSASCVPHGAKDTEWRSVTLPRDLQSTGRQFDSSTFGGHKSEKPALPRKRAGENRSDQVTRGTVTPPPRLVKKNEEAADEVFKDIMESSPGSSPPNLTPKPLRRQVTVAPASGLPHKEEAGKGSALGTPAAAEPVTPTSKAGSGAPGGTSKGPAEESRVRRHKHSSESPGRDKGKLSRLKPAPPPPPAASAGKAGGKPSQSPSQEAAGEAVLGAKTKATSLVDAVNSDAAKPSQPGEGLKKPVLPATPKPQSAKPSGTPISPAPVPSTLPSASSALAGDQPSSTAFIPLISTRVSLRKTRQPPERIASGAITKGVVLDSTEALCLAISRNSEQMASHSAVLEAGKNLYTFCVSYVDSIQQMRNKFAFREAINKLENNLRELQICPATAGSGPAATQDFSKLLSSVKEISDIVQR
Chain of Itk (Q08881 whole entry, species assumed): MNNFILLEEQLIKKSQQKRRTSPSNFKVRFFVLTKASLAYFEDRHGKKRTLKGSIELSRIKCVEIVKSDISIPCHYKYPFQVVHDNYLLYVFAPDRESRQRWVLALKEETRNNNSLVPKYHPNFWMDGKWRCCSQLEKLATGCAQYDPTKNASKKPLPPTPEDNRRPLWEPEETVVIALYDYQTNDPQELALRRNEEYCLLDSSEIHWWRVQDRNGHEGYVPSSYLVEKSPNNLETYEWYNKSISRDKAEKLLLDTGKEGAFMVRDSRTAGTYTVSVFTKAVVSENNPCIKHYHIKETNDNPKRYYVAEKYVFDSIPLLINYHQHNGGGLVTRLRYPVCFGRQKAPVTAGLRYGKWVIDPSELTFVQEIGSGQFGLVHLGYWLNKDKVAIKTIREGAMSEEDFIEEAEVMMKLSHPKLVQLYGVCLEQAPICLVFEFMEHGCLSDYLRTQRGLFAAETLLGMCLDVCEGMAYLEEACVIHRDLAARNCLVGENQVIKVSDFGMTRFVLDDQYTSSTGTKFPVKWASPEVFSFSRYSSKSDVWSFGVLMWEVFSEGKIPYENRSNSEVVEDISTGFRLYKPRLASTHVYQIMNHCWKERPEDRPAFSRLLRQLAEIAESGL

- IC50 (EGFR): > 10 µM
- IC50 (Lyn): > 10 µM
- IC50 (Mer): > 10 µM
- IC50 (Axl): > 10 µM
- IC50 (Itk): > 10 µM
- IC50 (Abl): > 10 µM
Structure (SMILES): O=c1[nH]c2cc3nc(-c4ccc5oc6ccccc6c5c4)n(CCCN4CCCCC4)c3cc2nc1-c1ccccc1 [CTA095, 2-(dibenzo[b,d]furan-2-yl)-7-phenyl-1-(3-(piperidin-1-yl)propyl)-1H-imidazo[4,5-g]quinoxalin-6(5H)-one]

— PMC3744530, “CTA095, a Novel Etk and Src Dual Inhibitor, Induces Apoptosis in Prostate Cancer Cells and Overcomes Resistance to Src Inhibitors” (PLoS ONE, 2013)
